Laboratory results taken from PubChem BioAssay (NCI).
“And” between values parts separate entries of the source, which are not always exact repeats. Equal entries are not always repeated.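 Protocol summary: plate cells (96-well), add compound at 5 concentrations, incubate 48 h, interpolate endpoints linearly. The concentration for 50% growth inhibition is given as GI50. TGI denotes the concentration required for complete inhibition of growth.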

How the values were obtained:
Test in all cases: inhibition of tumour cell growth, NCI panel, 48 h
[1] = system: IGROV1 ovarian
[2] = system: OVCAR-4 ovarian
[3] = system: NCI/ADR-RES ovarian
[4] = system: RPMI-8226 leukemia
[5] = system: MDA-MB-231 breast
[6] = system: MALME-3M melanoma
[7] = system: HT29 colon
[8] = system: HS 578T breast
[9] = system: SF-539 CNS
[10] = system: EKVX NSCLC

Row | Compound | TGI [1] | TGI [2] | TGI [3] | TGI [4] | TGI [5] | TGI [6] | TGI [7] | TGI [8] | TGI [9] | TGI [10] | GI50 [1] | GI50 [2] | GI50 [3] | GI50 [4] | GI50 [5] | GI50 [6] | GI50 [7] | GI50 [8] | GI50 [9] | GI50 [10]
1 | COc1cc(/C=C/c2ccccn2)cc(OC)c1OC | > 10 µM | > 10 µM | > 10 µM | > 10 µM | > 10 µM | > 10 µM | > 10 µM | > 10 µM | > 10 µM | > 10 µM | – | – | – | – | – | – | – | – | – | –
2 | Oc1cccc(-c2nc(-c3ccccc3)[nH]c2-c2ccncc2)c1 | > 25 µM | > 25 µM | > 25 µM | > 25 µM | > 25 µM | 8.01 µM | > 25 µM | > 25 µM | > 25 µM | > 25 µM | 10.4 µM | 10.5 µM | > 25 µM | 13.5 µM | 9.59 µM | 0.719 µM | 7.46 µM | 10.2 µM | 17.6 µM | > 25 µM
3 | Cc1cc2c(cc1Cl)SC(C(=O)c1ccc(Cl)c(Cl)c1)NS2(=O)=O (configuration not stated) | > 100 µM | 71.5 µM | > 100 µM | 56 µM | > 100 µM | > 100 µM | > 100 µM | > 100 µM | 42.2 µM | > 100 µM | 40.9 µM | 27.1 µM | 38.6 µM | 24.6 µM | 36.7 µM | 45.3 µM | 36.1 µM | 70 µM | 19.8 µM | 37.5 µM
4 | CNCCNc1nc2ccccc2c2c(=O)c3cccc(C)c3sc12 | 8.06 µM | 8.75 µM | 7.35 µM | 2.96 µM | 3.61 µM | 11.7 µM | 1.92 µM | 14.2 µM | 12.8 µM | 9.87 µM | 1.29 µM | 2.1 µM | 1.76 µM | 1.16 µM | 1.02 µM | 5.16 µM | 0.887 µM | 5.07 µM | 6.42 µM | 2.73 µM
5 | N=C1/C(=C2\Nc3ccccc3S2)CC(=O)N1c1ccc(SC(F)F)cc1 | > 100 µM | 52.2 µM | > 100 µM | 66 µM | > 100 µM | > 100 µM | > 100 µM | 29.2 µM | 28 µM | > 100 µM | 5.07 µM | 0.969 µM | 6.52 µM | 0.626 µM | 24.6 µM | > 100 µM | 1.99 µM | 2.17 µM | 4.09 µM | 24.5 µM
6 | O=c1[nH]c(SCc2ccccc2[N+](=O)[O-])nc2nc[nH]c12 | > 100 µM | > 100 µM | > 100 µM | > 100 µM | > 100 µM | > 100 µM | > 100 µM | > 100 µM | > 100 µM | > 100 µM | – | 30.3 µM and > 100 µM | – | – | > 100 µM and 40.8 µM | – | – | – | – | –
7 | CC12CC(=O)C3C(CCC4=CC(=O)CCC43C)C1CC=C2CC(=O)O (configuration not stated) | > 100 µM | > 100 µM | > 100 µM | > 100 µM | > 100 µM | > 100 µM | > 100 µM | > 100 µM | > 100 µM | > 100 µM | – | – | – | – | – | – | – | – | – | –
8 | Cc1cc(C#Cc2ccccc2)ccc1-n1c(/C=C/c2cc(O)ccc2O)nc2ccccc2c1=O | 8 µM | 8.5 µM | 5.22 µM | 6.08 µM | 3.16 µM | 3.72 µM | 4.19 µM | 7.95 µM | 3.44 µM | 5.41 µM | 2.45 µM | 2.4 µM | 2.06 µM | 1.26 µM | 1.56 µM | 1.5 µM | 1.97 µM | 1.54 µM | 1.6 µM | 1.24 µM
9 | O=C1/C(=C/c2ccccc2[N+](=O)[O-])COc2ccc(O)c(O)c21 | 2.55 µM | 2.29 µM | 13.6 µM | > 41.3 µM | 2.68 µM | 3 µM | 3.35 µM | 12.6 µM | 2.99 µM | 10.8 µM | 0.73 µM | 0.857 µM | 1.23 µM | 0.421 µM | 0.799 µM | 0.866 µM | 0.529 µM | 2.05 µM | 1.21 µM | 2.51 µM
10 | N#Cc1ccc(/C=C/C(=O)c2ccccc2)cc1 | 14.6 µM and 5.58 µM | 36.5 µM and 27 µM | 54.8 µM and 69.8 µM | 6.4 µM and 4.83 µM | 29.3 µM and 30.1 µM | 33.6 µM and 31 µM | 6.05 µM and 7 µM | 50.9 µM and 5.64 µM | 26.9 µM and 29.4 µM | 34.9 µM and 27.4 µM | 4.18 µM and 2.27 µM | 16.5 µM and 13.2 µM | 22.8 µM and 24.2 µM | 2.32 µM and 1.93 µM | 15 µM and 15.1 µM | 18.2 µM and 14.9 µM | 2.33 µM and 2.53 µM | 18.3 µM and 2.13 µM | 13.9 µM and 15.9 µM | 16.6 µM and 13.6 µM
11 | CCc1ccc([O-])c(C=NCCCN(C)CCCN=Cc2cc(C)ccc2[O-])c1.[Co+3].[N-]=[N+]=[N-] | 50 µg/mL and 55.5 µg/mL | 50 µg/mL and > 150 µg/mL | 50 µg/mL and 47.4 µg/mL | 50 µg/mL and > 150 µg/mL | 38.5 µg/mL | 50 µg/mL and > 150 µg/mL | 50 µg/mL and > 150 µg/mL | 50 µg/mL | 50 µg/mL and 82.3 µg/mL | 50 µg/mL and > 150 µg/mL | 20.5 µg/mL and 24.6 µg/mL | 50 µg/mL and 90.8 µg/mL | 50 µg/mL and 47.4 µg/mL | 50 µg/mL and 73.5 µg/mL | 15.2 µg/mL | 50 µg/mL and 82.6 µg/mL | 50 µg/mL and > 150 µg/mL | 13.8 µg/mL | 50 µg/mL and 22.7 µg/mL | 50 µg/mL and 103 µg/mL
